From PubChem BioAssay AID218 (DTP/NCI, 2004)
Where “and” joins values, the source holds several entries; their conditions need not be identical. Identical values can stand only once.

System: C57BL/6 mice, Adenocarcinoma 755 sc, tumor weight T/C
Experiment: NCI In Vivo Anticancer Drug Screen. Data for tumor model Adenocarcinoma 755 (subcutaneous) in C57BL/6 mice
Details: endpoint: mean tumor weight, higher = larger tumour
Experimental: The antitumor activity of compounds was measured in mice bearing transplantable tumors. Survival or tumor size were measured and the results are expressed as the measurement made in the treated group (T) divided by the measurement made in the vehicle treated control group (C). The tumor model used in this assay is Adenocarcinoma 755 (subcutaneous) in C57BL/6 mice

[1] = dose: 25.0 mg/kg/injection, schedule: Q01DX011 (ip), vehicle: carboxymethylcellulose (CMC)
[2] = dose: 50.0 mg/kg/injection, schedule: Q01DX011 (ip), vehicle: carboxymethylcellulose (CMC)
[3] = dose: 75.0 mg/kg/injection, schedule: Q02DX006 (ip), vehicle: saline
[4] = dose: 100.0 mg/kg/injection, schedule: Q02DX006 (ip), vehicle: saline
[5] = dose: 25.0 mg/kg/injection, schedule: Q01DX011 (ip), vehicle: saline
[6] = dose: 50.0 mg/kg/injection, schedule: Q01DX011 (ip), vehicle: saline
[7] = dose: 100.0 mg/kg/injection, schedule: Q01DX011 (ip), vehicle: saline
[8] = dose: 2.0 mg/kg/injection, schedule: Q01DX011 (ip), vehicle: carboxymethylcellulose (CMC)
[9] = dose: 5.0 mg/kg/injection, schedule: Q01DX011 (ip), vehicle: saline
[10] = dose: 10.0 mg/kg/injection, schedule: Q01DX011 (ip), vehicle: saline
[11] = dose: 15.0 mg/kg/injection, schedule: Q01DX011 (ip), vehicle: saline
[12] = dose: 20.0 mg/kg/injection, schedule: Q01DX011 (ip), vehicle: saline

`Cc1ccc(N2CCN(CCCN3CCN(c4ccc(Cl)cc4)CC3)CC2)cc1` was tested, and the T/C (dose: 3.1 mg/kg/injection, schedule: Q01DX011 (ip), vehicle: carboxymethylcellulose (CMC)) was 93 % of control, the T/C (dose: 6.25 mg/kg/injection, schedule: Q01DX011 (ip), vehicle: carboxymethylcellulose (CMC)) was 83 % of control and the T/C (dose: 12.5 mg/kg/injection, schedule: Q01DX011 (ip), vehicle: carboxymethylcellulose (CMC)) was 90 % of control. The T/C [1] was 52 % of control and the T/C [2] was 43 % of control.

In the case of `N=[N+]=CC(=O)OCC(N)C(=O)O` (configuration not stated), the T/C (dose: 4.0 mg/kg/injection, schedule: Q01DX011 (ip), vehicle: saline) is reported as 31 % of control and the T/C (dose: 8.0 mg/kg/injection, schedule: Q01DX011 (ip), vehicle: saline) is reported as 46 % of control.

For `NC(=S)N/N=C/c1ccc([N+](=O)[O-])cc1`, the T/C [3] was 22 % of control and the T/C [4] was 31 % of control.

`Clc1ncnc2c1ncn2Cc1ccco1` was tested, and the T/C (dose: 12.5 mg/kg/injection, schedule: Q01DX011 (ip), vehicle: saline) was 63 % of control, the T/C [5] was 62 % of control and the T/C [6] was 86 % of control. For the same compound, the T/C [7] was 51 % of control.

`Cn1cnc2ncnc(Cl)c21` was tested, and the T/C (dose: 75.0 mg/kg/injection, schedule: Q01DX011 (ip), vehicle: carboxymethylcellulose (CMC)) was 183 % of control.

For `O=C1C(NC(=O)C2CCCCC2)=C(N2CC2)C(=O)C(NC(=O)C2CCCCC2)=C1N1CC1`, the T/C (dose: 16.0 mg/kg/injection, schedule: Q01DX009 (ip), vehicle: saline) was 97 % of control, the T/C (dose: 32.0 mg/kg/injection, schedule: Q01DX009 (ip), vehicle: saline) was 56 % of control and the T/C (dose: 64.0 mg/kg/injection, schedule: Q01DX009 (ip), vehicle: saline) was 83 % of control.

`CN1CC(=O)NC1=O` was tested, and the T/C (dose: 250.0 mg/kg/injection, schedule: Q01DX011 (ip), vehicle: saline) was 49 % of control, the T/C (dose: 500.0 mg/kg/injection, schedule: Q01DX011 (ip), vehicle: saline) was 68 % of control and the T/C (dose: 1000.0 mg/kg/injection, schedule: Q01DX011 (ip), vehicle: saline) was 41 % of control. For the same compound, the T/C (dose: 2000.0 mg/kg/injection, schedule: Q01DX011 (ip), vehicle: saline) was 70 % of control.

`CCSCCC(N)C(=O)O` (configuration not stated) was tested, and the T/C [6] was 113 % of control, the T/C (dose: 75.0 mg/kg/injection, schedule: Q02DX006 (ip), vehicle: other) was 67 % of control and the T/C [7] was 67 % of control and 78 % of control. For the same compound, the T/C (dose: 100.0 mg/kg/injection, schedule: Q02DX006 (ip), vehicle: other) was 65 % of control and the T/C (dose: 150.0 mg/kg/injection, schedule: Q01DX011 (ip), vehicle: saline) was 72 % of control.

`O=C(O)CCCCC1NC(=O)CS1` (configuration not stated) was tested, and the T/C (dose: 225.0 mg/kg/injection, schedule: Q02DX006 (ip), vehicle: water) was 91 % of control and the T/C (dose: 275.0 mg/kg/injection, schedule: Q02DX006 (ip), vehicle: water) was 101 % of control.

`CS(=O)(=O)OCCCCOS(C)(=O)=O` was tested, and the T/C (dose: 2.5 mg/kg/injection, schedule: Q01DX011 (ip), vehicle: carboxymethylcellulose (CMC)) was 86 % of control, the T/C (dose: 5.0 mg/kg/injection, schedule: Q01DX011 (ip), vehicle: carboxymethylcellulose (CMC)) was 57 % of control and the T/C (dose: 10.0 mg/kg/injection, schedule: Q01DX011 (ip), vehicle: carboxymethylcellulose (CMC)) was 69 % of control. For the same compound, the T/C (dose: 10.0 mg/kg/injection, schedule: Q02DX006 (ip), vehicle: other) was 59 % of control, the T/C (dose: 12.5 mg/kg/injection, schedule: Q02DX006 (ip), vehicle: other) was 51 % of control and the T/C (dose: 15.0 mg/kg/injection, schedule: Q01DX011 (ip), vehicle: carboxymethylcellulose (CMC)) was 56 % of control. The T/C (dose: 15.0 mg/kg/injection, schedule: Q02DX006 (ip), vehicle: other) was 76 % of control, the T/C (dose: 20.0 mg/kg/injection, schedule: Q01DX011 (ip), vehicle: carboxymethylcellulose (CMC)) was 49 % of control and the T/C [1] was 26 % of control.

`O=c1cn[nH]c(=O)[nH]1` was tested, and the T/C (dose: 100.0 mg/kg/injection, schedule: Q01DX011 (ip), vehicle: carboxymethylcellulose (CMC)) was 159 % of control and the T/C (dose: 200.0 mg/kg/injection, schedule: Q01DX011 (ip), vehicle: carboxymethylcellulose (CMC)) was 110 % of control.

In the case of `CS(=O)(=O)OCCCCCCCCCOS(C)(=O)=O`, the T/C (dose: 0.25 mg/kg/injection, schedule: Q01DX011 (ip), vehicle: carboxymethylcellulose (CMC)) is reported as 64 % of control, the T/C (dose: 0.5 mg/kg/injection, schedule: Q01DX011 (ip), vehicle: carboxymethylcellulose (CMC)) is reported as 93 % of control and the T/C (dose: 1.0 mg/kg/injection, schedule: Q01DX011 (ip), vehicle: carboxymethylcellulose (CMC)) is reported as 162 % of control. For the same compound, the T/C [8] was 95 % of control and the T/C (dose: 4.0 mg/kg/injection, schedule: Q01DX011 (ip), vehicle: carboxymethylcellulose (CMC)) was 84 % of control.

In the case of `C1CN1c1nc(N2CC2)nc(N2CC2)n1`, the T/C (dose: 0.1 mg/kg/injection, schedule: Q01DX011 (ip), vehicle: saline) is reported as 28 % of control, the T/C (dose: 0.11 mg/kg/injection, schedule: Q01DX011 (ip), vehicle: saline) is reported as 44 % of control and the T/C (dose: 0.13 mg/kg/injection, schedule: Q01DX011 (ip), vehicle: saline) is reported as 61 % of control. For the same compound, the T/C (dose: 0.15 mg/kg/injection, schedule: Q01DX011 (ip), vehicle: saline) was 21 % of control, the T/C (dose: 0.2 mg/kg/injection, schedule: Q01DX011 (ip), vehicle: saline) was 12 % of control and the T/C (dose: 0.25 mg/kg/injection, schedule: Q02DX006 (ip), vehicle: saline) was 80 % of control. The T/C (dose: 0.3 mg/kg/injection, schedule: Q01DX011 (ip), vehicle: saline) was 5 % of control, the T/C (dose: 0.5 mg/kg/injection, schedule: Q01DX011 (ip), vehicle: saline) was 19 % of control and the T/C (dose: 0.5 mg/kg/injection, schedule: Q02DX006 (ip), vehicle: saline) was 121 % of control.

With `CSc1ncnc2c1ncn2C1OC(CO)C(O)C1O` (configuration not stated) the T/C [9] was 78 % of control, the T/C [10] was 50 % of control and the T/C [11] was 67 % of control.

`O=C(c1ccc(C(=O)N2CC2)cc1)N1CC1` was tested, and the T/C (dose: 12.5 mg/kg/injection, schedule: Q01DX011 (ip), vehicle: methylcellulose (MC)) was 60 % of control and the T/C (dose: 25.0 mg/kg/injection, schedule: Q01DX011 (ip), vehicle: methylcellulose (MC)) was 53 % of control.

`Cn1cnc2[nH]cnc(=S)c21` was tested, and the T/C [2] was 110 % of control, the T/C (dose: 200.0 mg/kg/injection, schedule: Q01DX011 (ip), vehicle: saline) was 45 % of control and the T/C (dose: 300.0 mg/kg/injection, schedule: Q01DX011 (ip), vehicle: saline) was 30 % of control. The T/C (dose: 400.0 mg/kg/injection, schedule: Q01DX011 (ip), vehicle: saline) was 22 % of control.

With `CCc1c(CC(=O)O)c2cc(C)ccc2n1Cc1ccc(Cl)cc1` the T/C (dose: 1.56 mg/kg/injection, schedule: Q01DX011 (ip), vehicle: saline) was 79 % of control, the T/C (dose: 3.13 mg/kg/injection, schedule: Q01DX011 (ip), vehicle: saline) was 66 % of control and the T/C (dose: 6.25 mg/kg/injection, schedule: Q01DX011 (ip), vehicle: saline) was 109 % of control. For the same compound, the T/C [5] was 10 % of control and the T/C [6] was 22 % of control.

`Nc1nc(SCc2ccccc2)c2[nH]cnc2n1` was tested, and the T/C (dose: 2.5 mg/kg/injection, schedule: Q01DX011 (ip), vehicle: saline) was 17 % of control, the T/C [9] was 5 % of control and the T/C [10] was 2 % of control.

For `O=C(O)c1cc(=O)[nH]c(=S)[nH]1`, the T/C [12] was 91 % of control, the T/C (dose: 30.0 mg/kg/injection, schedule: Q01DX011 (ip), vehicle: saline) was 121 % of control and the T/C (dose: 40.0 mg/kg/injection, schedule: Q01DX011 (ip), vehicle: saline) was 78 % of control. The T/C [6] was 82 % of control.

For `CCNc1ncnc2[nH]ncc12`, the T/C [11] was 13 % of control and the T/C [12] was 4 % of control.

For `NC(=S)N/N=C/c1cccc([N+](=O)[O-])c1`, the T/C [3] was 36 % of control and the T/C [4] was 47 % of control.

`c1cn[nH]c1` was tested, and the T/C (dose: 8.0 mg/kg/injection, schedule: Q01DX006 (iv), vehicle: saline) was 64 % of control, the T/C (dose: 12.5 mg/kg/injection, schedule: Q01DX011 (oral), vehicle: saline) was 61 % of control and the T/C (dose: 25.0 mg/kg/injection, schedule: Q01DX011 (oral), vehicle: saline) was 45 % of control. For the same compound, the T/C (dose: 32.0 mg/kg/injection, schedule: Q01DX006 (iv), vehicle: saline) was 94 % of control, the T/C (dose: 50.0 mg/kg/injection, schedule: Q01DX011 (oral), vehicle: saline) was 9 % of control and the T/C (dose: 64.0 mg/kg/injection, schedule: Q01DX006 (iv), vehicle: saline) was 53 % of control.

`Nc1c(Br)cc2c(c1Br)Cc1cc([N+](=O)[O-])ccc1-2` was tested, and the T/C (dose: 31.3 mg/kg/injection, schedule: Q01DX011 (ip), vehicle: saline) was 17 % of control and the T/C (dose: 125.0 mg/kg/injection, schedule: Q01DX011 (ip), vehicle: saline) was 17 % of control.

In the case of `Nc1nc(F)nc2c1ncn2C1OC(CO)C(O)C1O` (configuration not stated), the T/C [8] is reported as 87 % of control.
